Starred links: 1 amine or outer side, 2 acyl side, 3 side chain; linkers in the order of their positions; H or OH if unused. Residues, ends and D or L forms follow the SMILES beside them. *: point of attachment. Mu = morpholinocarbonyl, O=C(N1CCOCC1)*; AMC = Cc1cc(=O)oc2cc(N*)ccc12; Morpholide = C1CN(*)CCO1; CO = O=C([*:1])[*:2]; Dox = doxorubicin
How the values were obtained:
[1] = target: T1, tissue plasminogen activator (TPA) (Homo sapiens, UniProt P00750); experiment: Peptide-AMC cleavage by purified extracellular protease; format: biochemical; details: 0.2 mM substrate, PSA assay buffer pH 7.8
T1 construct: purchased Calbiochem

human kallikrein, hK1 = experiment: as above; format: biochemical; details: 0.2 mM substrate, PSA assay buffer pH 7.8
Trypsin = experiment: as above; format: biochemical; details: 0.2 mM substrate, PSA assay buffer pH 7.8
Elastase = experiment: as above; format: biochemical; details: 0.2 mM substrate, PSA assay buffer pH 7.8
urokinase = target: T2, urokinase (Homo sapiens, UniProt P00749); experiment: as above; format: biochemical; details: 0.2 mM substrate, PSA assay buffer pH 7.8
T2 construct: purchased Calbiochem

chymotrypsin = target: T3, chymotrypsin (Bos taurus, UniProt P00766); experiment: as above; format: biochemical; details: 0.2 mM substrate, PSA assay buffer pH 7.8
T3 construct: purchased Sigma Chemical Co

Plasmin = target: T4, Plasmin (Homo sapiens, UniProt P00747); experiment: as above; format: biochemical; details: 0.2 mM substrate, PSA assay buffer pH 7.8
T4 construct: purchased Calbiochem

thrombin = target: T5, thrombin (Homo sapiens, UniProt P00734); experiment: as above; format: biochemical; details: 0.2 mM substrate, PSA assay buffer pH 7.8
T5 construct: purchased Sigma Chemical Co

porcine liver esterase = experiment: PSA substrate cleavage by purified intracellular protease; format: biochemical; details: 0.2 mM substrate, pH 7.8; SKLQ, KLQ, LQ in 1.4% acetonitrile/buffer, Q-AMC in 0.2% formic acid/buffer
Procedure: (§1) Cleavage was studied by measuring fluorescence change secondary to AMC release. Fluorescence detection was carried out with a Fluoroskan II 96 well fluorometric plate reader (ICN Biomedicals, Costa Mesa, Calif.), with excitation wavelength 355 nm and emission wavelength 460 nm. Data were collected and analyzed using Deltasoft III software (Biometallics, Princeton, N.J.). All reactions were performed at room temperature by the addition of substrate and proteases into PSA buffer, described below, in a final volume of 200 μL. The results were determined from the initial linear increase of fluorescence and were expressed as the picomoles of AMC released per minute based upon comparison to a standard curve of the fluorescence of known amounts of AMC (i.e., fluorescence was linear form 20 to 300 picomoles of AMC). The data were analyzed by Lineweaver-Burke reciprocal plots to determine the Michaelis-Menten constant (i.e., Km) expressed as the amount of substrate needed to saturate half of the enzyme and the catalytic rate constant (i.e., kcat) expressed as the amount of substrate converted to product per time per amount of enzyme.
(§2) A family of peptide substrates based upon the EHSSKLQ (SEQ ID NO:10) sequence was assayed for activity for the intracellular proteases, and the results given in Table 4.
(§3) The amino acid sequences expressed in one letter amino acid code represent the following amino acid sequences in the three letter amino acid code: EHSSKLQ (Glu-His-Ser-Ser-Lys-Leu-Gln; SEQ ID NO:10), The shorter sequences are formed by deleting amino acids from the amino terminal side of the sequence. Determinations listed in the table were carried out with substrates at 0.2 mM concentration in the PSA assay buffer (50 mM Tris/0.1M NaCl pH 7.8), except SKLQ (SEQ ID NO:1), KLQ and LQ, which were carried out in 1.4% acetonitrile/buffer and Q-AMC which was carried out in 0.2% formic acid/buffer, at pH 7.8. The entry “UD” stands for “undetectable” and means that at most, 0.1 pmole of substrate cleavage per minute per 200 pmole protease took place. Asterisks represent experiments not performed. Abbreviations are as follows: PSA (prostate specific antigen), Cath B, C, D (Cathepsins, B, C, D), Esterase (porcine liver esterase).

Cathepsin C = target: T6, Cathepsin C (Homo sapiens, UniProt P53634); experiment: as above; format: biochemical; details: 0.2 mM substrate, pH 7.8; SKLQ, KLQ, LQ in 1.4% acetonitrile/buffer, Q-AMC in 0.2% formic acid/buffer
T6 construct: purchased Sigma Chemical Co
Procedure: as §1, §2, §3

Cathepsin B = target: T7, Cathepsin B (Homo sapiens, UniProt P07858); experiment: as above; format: biochemical; details: 0.2 mM substrate, pH 7.8; SKLQ, KLQ, LQ in 1.4% acetonitrile/buffer, Q-AMC in 0.2% formic acid/buffer
T7 construct: purchased Sigma Chemical Co
Procedure: as §1, §2, §3

Cathepsin D = target: T8, Cathepsin D (Homo sapiens, UniProt P07339); experiment: as above; format: biochemical; details: 0.2 mM substrate, pH 7.8; SKLQ, KLQ, LQ in 1.4% acetonitrile/buffer, Q-AMC in 0.2% formic acid/buffer
T8 construct: purchased Sigma Chemical Co
Procedure: as §1, §2, §3

[2] = Stability of PSA substrates in serum (AMC release); format: in vitro ADME; details: 0.2 mM substrate
[3] = target: T9, PSA (prostate specific antigen) (Homo sapiens, UniProt P07288); experiment: Cleavage of AMC-labelled peptide substrates by purified PSA (fluorescence of released AMC; Lineweaver-Burke kinetics); format: biochemical
T9 construct: PSA was purified from human seminal plasma; from tissue; host or cells: human seminal plasma

[4] = Cytotoxic activity (LD50) of thapsigargin and debutanoyl derivative; format: cell-based
Procedure: The starting material for all the synthesized analogs is 8-O-debutanoylthapsigargin, which is easily available by triethylamine catalyzed methanolysis of thapsigargin. Removal of the butanoyl results in loss of cytotoxic activity with an LD50 of >50 μM compared to <100 nM for thapsigargin. Anhydrides of dicarboxylic acids of various lengths afforded analogs in which the acyl group attached to the O-8 ended in a free carboxylic acid. A dicyclohexylcarbodiimide (DCCI) promoted coupling of a 2,4-diaminoarene to the carboxylic acid analogs affords the derivatives in which contain a primary aromatic amine as a potential coupling point for additional moeities.

[5] = target: sarcoplasmic reticulum (SR) and endoplasmic reticulum (ER) Ca2+-ATPase (SERCA) pump; details: read-out: apparent dissociation constant; cited from earlier work
[6] = target: T10, endoplasmic reticulum Ca2+-ATPase (SERCA), SR vesicles from rabbit skeletal muscle (Oryctolagus cuniculus, UniProt P04191); experiment: SERCA inhibition: 45Ca2+ uptake to sarcoplasmic reticulum vesicles; format: biochemical; details: mean (n=3) ± standard error; 5 μg/ml SR protein, free Ca2+ 100 nM, 4 min uptake; read-out: IC50 (50% inhibition of 45Ca2+ uptake to SR vesicles)
T10 construct: sarcoplasmic reticulum (SR) vesicles prepared from rabbit skeletal muscle; from tissue; host or cells: rabbit skeletal muscle sarcoplasmic reticulum vesicles
Procedure: The primary amine-containing thapsigargin analogs of the invention have endoplasmic reticulum Ca^2+-ATPase inhibitory activity. This activity is measured as the concentration of analog needed to inhibit 50% of this ATPase (IC50). The IC50 of the analogs of the invention is desirably at most 500 nM, preferably at most 200 nM, and more preferably at most 50 nM of analog.
The inhibitory potency of thapsigargin and its analogs was determined as the concentration required to produce 50% inhibition (i.e. IC50) of ^45Ca^2+ uptake to sarcoplasmic reticulum (SR) vesicles prepared from rabbit skeletal muscle by the method of De Meis and Hasselbach (J. Biol. Chem., 246: 4759-4763, 1971). The ^45Ca^2+ uptake assay was as described previously (Christensen, et al., FEBS, 335: 345-348, 1993), with the following modifications: 5 μg/ml of SR protein was incubated at 25EC and free Ca^2+ adjusted to 100 nM using 4 min. uptake time. Under these conditions, Ca^2+ could proceed linearly with time for at least 8 minutes. Measurements of Ca^2+ within TSU cells was determined as described previously (Lin et al., The Prostate, 33:201-207, 1997).
The IC50 results are mean (n=3)±standard error. The LC50 results are mean (n=5)±standard error. The entry “ND” stands for “not determined”. Clonogenic survival not determined above 10 μM for dBTG. Analogs with −boc have a t-butoxycarbonyl (boc) protected amino group.

[7] = Clonogenic survival of TSU-Pr1 cells after 72 hours exposure to TG analogs; format: cell-based, human; details: human; TSU-Pr1, 72 hours exposure; mean (n=5) ± standard error; read-out: LC50 (concentration needed to kill 50% of clonogenic cells)
In short: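 Androgen-independent human prostate cancer TSU-Pr1 cells (2×10^5) were exposed for 72 h to varying thapsigargin analog concentrations, and clonogenic survival was then assessed. LC50 is the concentration killing 50% of clonogenic cells, reported as mean of n=5 ± SE.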

[8] = cited from earlier work
TSU-Pr1 cells = experiment: Clonogenic survival of TSU-Pr1 cells after 48 hr exposure to doxorubicin prodrugs with or without exogenously added PSA; format: cell-based, human; details: 50 μM prodrug
Procedure: The androgen responsive PSA-producing LNCaP and androgen independent PSA non-producing TSU-Pr1 are human prostate cancer lines were obtained from ATCC (Rockville, Md.) and maintained by serial passage in RPMI 1640 media containing 10% fetal calf serum with 100 units/ml penicillin G, and 100 units/ml streptomycin sulfate (antibiotics from M.A. Bioproducts, Walkerville, Md.) as standard media in 5% CO2/95% air at 37° C. The origins and characteristics of the LNCaP and TSU-Pr1 cell lines are described in Horoszewicz, et al., Cancer Res., 43:1809-1818, (1980)and Iizumi, et al., J. Urol, 137: 1304-1306, (1987).
Percentage clonogenic survival of TSU-Pr1 (2×10^5 cells) following 48 hr. exposure to varying concentrations of doxorubicin prodrugs with or without exogenously added PSA was performed as described in Martikainen et al., Cancer Res., 51:4693-4700, (1991).
Results for Mu-His-Ser-Ser-Lys-Leu-Gln-doxorubicin (SEQ ID NO:16) at 50 μM, were 122 colonies for treatment without PSA, and 110 colonies for treatment with 30 μg/ml enzymatically active PSA. Results are shown as averages (n=5) with standard error of 2 to 7. Assays were done in triplicate.

[9] = PSA substrate, PSA assay buffer pH 7.8, Lineweaver-Burke

T9 sequence (P07288 25-261): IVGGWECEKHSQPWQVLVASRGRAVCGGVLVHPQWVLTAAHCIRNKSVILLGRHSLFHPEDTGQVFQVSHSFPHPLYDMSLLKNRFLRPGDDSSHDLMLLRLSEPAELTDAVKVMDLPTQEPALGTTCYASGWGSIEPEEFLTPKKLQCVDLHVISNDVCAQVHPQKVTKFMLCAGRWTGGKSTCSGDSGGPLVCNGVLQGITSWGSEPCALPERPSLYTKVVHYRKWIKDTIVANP
T10 sequence (P04191 1-994 isoform P04191-2): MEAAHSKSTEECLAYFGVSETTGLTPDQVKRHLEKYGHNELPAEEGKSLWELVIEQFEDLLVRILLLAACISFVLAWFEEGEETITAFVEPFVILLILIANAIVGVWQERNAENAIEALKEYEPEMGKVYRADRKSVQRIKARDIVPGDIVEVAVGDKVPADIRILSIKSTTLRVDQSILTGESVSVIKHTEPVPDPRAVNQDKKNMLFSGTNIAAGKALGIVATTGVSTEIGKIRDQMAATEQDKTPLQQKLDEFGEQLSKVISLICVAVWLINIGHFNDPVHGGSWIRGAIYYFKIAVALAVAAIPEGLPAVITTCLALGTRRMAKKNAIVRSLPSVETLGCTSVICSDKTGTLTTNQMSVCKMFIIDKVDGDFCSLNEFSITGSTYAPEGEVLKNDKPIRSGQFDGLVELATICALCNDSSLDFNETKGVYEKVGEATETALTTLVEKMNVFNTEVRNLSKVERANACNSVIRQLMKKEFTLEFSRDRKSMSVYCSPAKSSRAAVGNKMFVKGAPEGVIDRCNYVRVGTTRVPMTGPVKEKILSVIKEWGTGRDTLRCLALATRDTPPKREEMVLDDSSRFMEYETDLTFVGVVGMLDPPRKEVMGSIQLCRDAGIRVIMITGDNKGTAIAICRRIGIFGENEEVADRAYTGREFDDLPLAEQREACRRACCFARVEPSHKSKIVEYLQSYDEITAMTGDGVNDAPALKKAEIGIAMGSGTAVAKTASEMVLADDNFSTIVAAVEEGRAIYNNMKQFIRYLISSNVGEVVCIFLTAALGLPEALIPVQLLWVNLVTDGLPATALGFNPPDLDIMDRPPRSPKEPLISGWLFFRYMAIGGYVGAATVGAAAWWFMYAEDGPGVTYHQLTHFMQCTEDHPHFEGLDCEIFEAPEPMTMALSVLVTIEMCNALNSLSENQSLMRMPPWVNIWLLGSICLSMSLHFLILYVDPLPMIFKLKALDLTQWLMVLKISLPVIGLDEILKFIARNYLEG
T4 sequence (P00747 581-810 limits assumed, species assumed): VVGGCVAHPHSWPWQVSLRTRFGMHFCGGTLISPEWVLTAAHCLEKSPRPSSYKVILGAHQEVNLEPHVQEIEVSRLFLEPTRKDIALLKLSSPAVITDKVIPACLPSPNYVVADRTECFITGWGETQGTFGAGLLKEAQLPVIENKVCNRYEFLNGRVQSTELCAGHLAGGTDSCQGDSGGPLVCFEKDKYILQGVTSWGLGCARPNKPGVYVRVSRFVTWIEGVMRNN
T4 sequence (P00747 97-580 partner limits assumed, species assumed): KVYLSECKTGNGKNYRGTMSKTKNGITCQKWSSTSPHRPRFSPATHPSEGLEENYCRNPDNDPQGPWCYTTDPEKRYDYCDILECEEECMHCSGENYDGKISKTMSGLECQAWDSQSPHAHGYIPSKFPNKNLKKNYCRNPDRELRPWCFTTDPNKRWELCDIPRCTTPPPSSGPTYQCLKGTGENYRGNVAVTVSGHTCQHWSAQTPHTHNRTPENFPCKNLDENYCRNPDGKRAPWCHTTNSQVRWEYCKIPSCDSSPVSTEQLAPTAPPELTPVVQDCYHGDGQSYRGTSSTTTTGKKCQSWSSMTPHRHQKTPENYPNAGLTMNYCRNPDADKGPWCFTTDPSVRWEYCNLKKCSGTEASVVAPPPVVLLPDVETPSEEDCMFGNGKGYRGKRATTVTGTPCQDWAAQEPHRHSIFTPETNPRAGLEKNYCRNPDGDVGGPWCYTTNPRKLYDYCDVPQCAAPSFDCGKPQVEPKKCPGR
T8 sequence (P07339 65-412): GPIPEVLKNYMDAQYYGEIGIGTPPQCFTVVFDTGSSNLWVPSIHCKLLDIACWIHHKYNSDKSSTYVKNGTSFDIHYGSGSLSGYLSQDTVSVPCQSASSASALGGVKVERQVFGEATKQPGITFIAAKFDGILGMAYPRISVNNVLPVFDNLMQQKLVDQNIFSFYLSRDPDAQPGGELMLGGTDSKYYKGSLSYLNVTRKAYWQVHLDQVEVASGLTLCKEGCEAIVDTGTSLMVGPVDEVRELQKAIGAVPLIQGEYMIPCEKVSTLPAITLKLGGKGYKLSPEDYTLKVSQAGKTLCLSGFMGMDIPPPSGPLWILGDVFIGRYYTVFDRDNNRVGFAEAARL
T1 sequence (P00750 36-562, species assumed): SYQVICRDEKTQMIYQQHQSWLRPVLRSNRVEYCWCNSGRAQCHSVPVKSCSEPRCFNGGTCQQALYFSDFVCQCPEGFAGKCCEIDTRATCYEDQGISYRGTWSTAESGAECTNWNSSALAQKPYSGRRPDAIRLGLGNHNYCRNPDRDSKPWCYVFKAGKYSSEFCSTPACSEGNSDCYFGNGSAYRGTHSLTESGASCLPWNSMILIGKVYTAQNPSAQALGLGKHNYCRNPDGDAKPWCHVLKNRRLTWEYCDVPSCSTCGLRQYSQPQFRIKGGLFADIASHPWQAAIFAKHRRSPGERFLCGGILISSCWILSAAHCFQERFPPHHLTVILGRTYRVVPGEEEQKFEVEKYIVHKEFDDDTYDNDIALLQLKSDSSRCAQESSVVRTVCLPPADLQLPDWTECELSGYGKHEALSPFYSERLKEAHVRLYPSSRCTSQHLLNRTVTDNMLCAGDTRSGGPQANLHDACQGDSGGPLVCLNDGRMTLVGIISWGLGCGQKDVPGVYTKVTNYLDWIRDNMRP
T6 sequence (P53634 25-463): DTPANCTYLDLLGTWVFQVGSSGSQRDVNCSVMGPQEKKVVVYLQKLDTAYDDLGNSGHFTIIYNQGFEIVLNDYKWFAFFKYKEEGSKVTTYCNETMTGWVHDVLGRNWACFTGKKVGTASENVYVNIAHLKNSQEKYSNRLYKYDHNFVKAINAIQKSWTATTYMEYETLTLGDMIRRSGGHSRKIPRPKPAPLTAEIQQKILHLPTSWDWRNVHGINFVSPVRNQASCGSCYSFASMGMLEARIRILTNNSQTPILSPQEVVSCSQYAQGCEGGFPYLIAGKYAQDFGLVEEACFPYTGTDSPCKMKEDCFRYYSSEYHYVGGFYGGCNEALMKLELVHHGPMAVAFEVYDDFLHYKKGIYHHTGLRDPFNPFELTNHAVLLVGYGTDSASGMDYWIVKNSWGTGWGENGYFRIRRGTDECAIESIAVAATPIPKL

## Cc1cc(=O)oc2cc(NC(=O)[C@H](CCC(N)=O)NC(=O)[C@H](CC(C)C)NC(=O)[C@H](CCCCN)NC(=O)[C@H](CO)NC(=O)[C@H](CO)NC(=O)[C@H](Cc3c[nH]cn3)NC(=O)[C@H](CCC(=O)O)NC(=O)N3CCOCC3)ccc12 [EHSSKLQ, Glu-His-Ser-Ser-Lys-Leu-Gln] ({Morpholide-CO}-EHSSKLQ-{AMC})
[1]
  Picomoles of substrate cleaved/minute/200 pmoles of indicated protease: TPA: UD (at most, 0.1 pmole of substrate cleavage per minute per 200 pmole protease took place)
Human kallikrein, hK1
  Picomoles of substrate cleaved/minute/200 pmoles of indicated protease: Kallik: UD (at most, 0.1 pmole of substrate cleavage per minute per 200 pmole protease took place)
Trypsin
  Picomoles of substrate cleaved/minute/200 pmoles of indicated protease: Trypsin: UD (at most, 0.1 pmole of substrate cleavage per minute per 200 pmole protease took place)
Elastase
  Picomoles of substrate cleaved/minute/200 pmoles of indicated protease: Elastase: UD (at most, 0.1 pmole of substrate cleavage per minute per 200 pmole protease took place)
urokinase
  Picomoles of substrate cleaved/minute/200 pmoles of indicated protease: Urokin: UD (at most, 0.1 pmole of substrate cleavage per minute per 200 pmole protease took place)
chymotrypsin
  Picomoles of substrate cleaved/minute/200 pmoles of indicated protease: Chymo: UD (at most, 0.1 pmole of substrate cleavage per minute per 200 pmole protease took place)
Plasmin
  Picomoles of substrate cleaved/minute/200 pmoles of indicated protease: Plasmin: UD (at most, 0.1 pmole of substrate cleavage per minute per 200 pmole protease took place)
thrombin
  Picomoles of substrate cleaved/minute/200 pmoles of indicated protease: Thromb: UD (at most, 0.1 pmole of substrate cleavage per minute per 200 pmole protease took place)
Porcine liver esterase
  picomoles of peptide cleaved/min/200 picomoles protease: Esterase: UD (at most, 0.1 pmole of substrate cleavage per minute per 200 pmole protease took place)
Cathepsin C
  picomoles of peptide cleaved/min/200 picomoles protease: Cath C: UD (at most, 0.1 pmole of substrate cleavage per minute per 200 pmole protease took place)
Cathepsin B
  picomoles of peptide cleaved/min/200 picomoles protease: Cath B: 4.3 picomoles/min/200 picomoles pr
Cathepsin D
  picomoles of peptide cleaved/min/200 picomoles protease: Cath D: 2.2 picomoles/min/200 picomoles pr
[2]
  picomles AMC released/minute: Calf: UD (not more than 0.01 picomole of substrate per minute was cleaved)
  picomles AMC released/minute: Fetal Calf: UD (not more than 0.01 picomole of substrate per minute was cleaved)
  picomles AMC released/minute: Goat: UD (not more than 0.01 picomole of substrate per minute was cleaved)
  picomles AMC released/minute: Mouse: 2.17 picomoles/minute
  picomles AMC released/minute: Rat: 0.06 picomoles/minute
[2]; human serum 100%
  picomles AMC released/minute: Human: UD (not more than 0.01 picomole of substrate per minute was cleaved)
[3]; 0.2 mM substrate, PSA assay buffer pH 7.8, room temperature
  Picomoles of substrate cleaved/minute/200 pmoles of indicated protease: PSA: 31.6 picomoles/minute/200 pmoles pr
[3]; 0.2 mM substrate, pH 7.8, SKLQ, KLQ, LQ in 1.4% acetonitrile/buffer, Q-AMC in 0.2% formic acid/buffer
  picomoles of peptide cleaved/min/200 picomoles protease: PSA: 31.6 picomoles/min/200 picomoles pr
[3]; [9]
  Kcat: 0.02 s⁻¹
  Km: 1160 µM

## C/C=C(/C)C(=O)O[C@H]1C(C)=C2[C@H]([C@@H]1OC(=O)CCCCCCC)[C@@](C)(OC(C)=O)C[C@H](OC(=O)CCC)[C@@]1(O)[C@H]2OC(=O)[C@@]1(C)O [TG, Thapsigargin]
[4]
  LD50 (cytotoxic activity): < 0.1 µM
[5]
  Kd: ≤ 0.0022 nM
[6]
  IC50: 5 ± 0.3 nM
[7]
  CC50: 30 ± 4 nM
[8]
  solubility in water: poorly soluble in water

## C/C=C(/C)C(=O)O[C@H]1C(C)=C2[C@H]([C@@H]1OC(=O)CCCCCCC)[C@@](C)(OC(C)=O)C[C@H](O)[C@@]1(O)[C@H]2OC(=O)[C@@]1(C)O [dBTG, 8-O-debutanoylthapsigargin, reference compound]
[4]
  LD50 (cytotoxic activity): > 50 µM
[6]
  IC50: 149 ± 21 nM
[7]
  CC50: > 10000 nM

## Mu-His-Ser-Ser-Lys-Leu-Gln-doxorubicin (Mu-HSSKLQ-Dox; listed as Homo sapiens) [doxorubicin prodrug without Leu linker; b202 describes it as acetyl-capped]
TSU-Pr1 cells; with 30 μg/ml PSA
  number of TSU-Pr1 colonies, treatment with 30 μg/ml enzymatically active PSA: 110 colonies
TSU-Pr1 cells; without PSA
  number of TSU-Pr1 colonies, treatment without PSA: 122 colonies
